Measured values published in patent US11034692B1 (Genentech, Inc., priority 2017, dated 2021).

biological target: HPK1; assay: HPK1 Lantha Binding Assay ("Lanth"); details: Table B1-1, read-out: HPK1 Ki (μM) (Lanth)
Method in brief: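 TR-FRET tracer displacement with 2 nM GST-tagged kinase, 2 nM Eu-anti-GST antibody and 15 nM Tracer222 at 23 C. Enzyme–antibody preincubated 1 h with compound, then tracer added for 1 h; 340 nm excitation, 615/665 nm emission. Ki from Morrison fit over an 11-point 5-fold dilution.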

Row | Compound | Ki [nM]
1 | Nc1nc(N2CCOC2=O)cc2cc(NC(=O)C3CC3)ncc12 [Compound 40, N-(8-amino-6-(2-oxooxazolidin-3-yl)-2,7-naphthyridin-3-yl)cyclopropanecarboxamide] | 98
2 | CNC(=O)c1cc(Nc2cc3cc(-c4cnccc4C)nc(N)c3cn2)nn1C [Compound 263, 3-[[8-Amino-6-(4-methylpyridin-3-yl)-2,7-naphthyridin-3-yl]amino]-N,1-dimethyl-1H-pyrazole-5-carboxamide] | 0.021
3 | CCc1ccncc1-c1cc2cc(Nc3cnn(CCO)c3)ncc2c(N)n1 [Compound 85, 2-{4-[8-Amino-6-(4-ethylpyridin-3-yl)-[2,7]naphthyridin-3-ylamino]pyrazol-1-yl}ethanol] | 1.98
4 | Cc1ccncc1-c1cc2cc(Nc3cnn(CC(C)(C)O)c3)ncc2c(N)n1 [Compound 260, 1-(4-[[8-amino-6-(4-methylpyridin-3-yl)-2,7-naphthyridin-3-yl]amino]-1H-pyrazol-1-yl)-2-methylpropan-2-ol] | 0.73
5 | N#C[C@H]1C[C@@H]1C(=O)Nc1cc2cc(-c3cnccc3-c3cc[nH]n3)nc(N)c2cn1 [Compound 244, (1S,2S)—N-(6-(4-(1H-pyrazol-3-yl)pyridin-3-yl)-8-amino-2,7-naphthyridin-3-yl)-2-cyanocyclopropanecarboxamide] | 3.56
6 | CCc1c(-c2cnccc2C)nc(N)c2cnc(NC(=O)[C@@H]3C[C@H]3CC#N)cc12 [Compound 272, (1R,2S)—N-[8-amino-5-ethyl-6-(4-methylpyridin-3-yl)-2,7-naphthyridin-3-yl]-2-(cyanomethyl)cyclopropane-1-carboxamide] | 0.139
7 | Cc1ccncc1-c1cc2cc(Nc3cnn([C@@H]4CCCN(C)C4=O)c3)ncc2c(N)n1 [Compound 251, (3R)-3-(4-[[8-amino-6-(4-methylpyridin-3-yl)-2,7-naphthyridin-3-yl]amino]-1H-pyrazol-1-yl)-1-methylpiperidin-2-one] | 0.512
8 | CCc1ncncc1-c1cc2cc(NC(=O)[C@@H]3C[C@@H]3F)ncc2c(N)n1 [Compound 13, (1S,2S)—N-(8-amino-6-(4-ethylpyrimidin-5-yl)-2,7-naphthyridin-3-yl)-2-fluorocyclopropanecarboxamide] | 15.6
9 | CCc1ccncc1-c1cc2cc(Nc3cnn(CCO)c3)ncc2c(N)n1 [Compound 168, 2-[4-[[8-amino-6-(4-ethyl-3-pyridyl)-2,7-naphthyridin-3-yl]amino]pyrazol-1-yl]ethanol] | 2
10 | Cc1c(N)cncc1-c1cc2cc(NC(=O)[C@H]3C[C@@H]3C#N)ncc2c(N)n1 [Compound 200, (1S,2S)—N-(8-amino-6-(5-amino-4-methylpyridin-3-yl)-2,7-naphthyridin-3-yl)-2-cyanocyclopropane-1-carboxamide] | 0.343
11 | NCCOCCn1cc([C@H]2C[C@@H]2C(=O)Nc2cc3cc(-c4c(Cl)cccc4Cl)nc(N)c3cn2)cn1 [Compound 295, (1S,2S)—N-[8-amino-6-(2,6-dichlorophenyl)-2,7-naphthyridin-3-yl]-2-[1-[2-(2-aminoethoxy)ethyl]-1H-pyrazol-4-yl]cyclopropane-1-carboxamide] | 0.287
12 | COC(C)(C)[C@H]1C[C@@H]1C(=O)Nc1cc2cc(-c3cnccc3C)nc(N)c2cn1 [Compound 240, (1S,2S)—N-[8-amino-6-(4-methylpyridin-3-yl)-2,7-naphthyridin-3-yl]-2-(2-methoxypropan-2-yl)cyclopropane-1-carboxamide] | 47
13 | Cc1ccncc1-c1cc2cc(NC(=O)[C@@H]3C[C@@]34CCNC(=O)C4)ncc2c(N)n1 [Compound 312, (1R,3S)—N-[8-amino-6-(4-methylpyridin-3-yl)-2,7-naphthyridin-3-yl]-5-oxo-6-azaspiro[2.5]octane-1-carboxamide] | 5.77
14 | Cc1ccncc1-c1cc2cc(NC(=O)N[C@H]3CCC[C@@H]3O)ncc2c(N)n1 [Compound 134, 1-[8-amino-6-(4-methyl-3-pyridyl)-2,7-naphthyridin-3-yl]-3-[(1S,2S)-2-hydroxycyclopentyl]urea] | 5.6
15 | Cc1ccc(C(=O)N(C)C)cc1-c1cc2cc(NC(=O)[C@@H]3C[C@H]3c3cnn(C)c3)ncc2c(N)n1 [Compound 291, 3-(1-amino-6-[[(1R,2R)-2-(1-methyl-1H-pyrazol-4-yl)cyclopropane]amido]-2,7-naphthyridin-3-yl)-N,N,4-trimethylbenzamide] | 63.8

The remaining lines, values ahead:

Row | Ki [nM] | Compound
16 | 0.668 | Cc1ccncc1-c1cc2cc(NC(=O)[C@@H]3C[C@H]3c3cnn(CCOCCN)c3)ncc2c(N)n1 [Compound 293, (1R,2R)—N-[8-amino-6-(4-methylpyridin-3-yl)-2,7-naphthyridin-3-yl]-2-[1-[2-(2-aminoethoxy)ethyl]-1H-pyrazol-4-yl]cyclopropane-1-carboxamide]
17 | 0.65 | Cn1cc([C@@H]2C[C@H]2C(=O)Nc2cc3cc(-c4c(F)cccc4Cl)nc(N)c3cn2)cn1 [Compound 302, (1R,2R)—N-(8-amino-6-(2-chloro-6-fluorophenyl)-2,7-naphthyridin-3-yl)-2-(1-methyl-1H-pyrazol-4-yl)cyclopropanecarboxamide]
18 | 0.112 | Cn1cc([C@@H]2C[C@H]2C(=O)Nc2cc3cc(-c4c(F)cccc4F)nc(N)c3cn2)cn1 (stereo in doubt) [Compound 307, (1R,2R)—N-[8-amino-6-(2,6-difluorophenyl)-2,7-naphthyridin-3-yl]-2-(1-methyl-1H-pyrazol-4-yl)cyclopropane-1-carboxamide]
19 | 0.074 | Cc1ccncc1-c1cc2cc(NC(=O)[C@@H]3[C@@H](C)[C@H]3c3cnn(C)c3)ncc2c(N)n1 [Compound 326, (1R,2S,3R)—N-[8-amino-6-(4-methylpyridin-3-yl)-2,7-naphthyridin-3-yl]-2-methyl-3-(1-methyl-1H-pyrazol-4-yl)cyclopropane-1-carboxamide]
20 | 0.116 | Cc1ccncc1-c1nc(N)c2cnc(NC(=O)[C@H]3C[C@@H]3CC#N)cc2c1Cl [Compound 270, (1S,2R)—N-[8-amino-5-chloro-6-(4-methylpyridin-3-yl)-2,7-naphthyridin-3-yl]-2-(cyanomethyl)cyclopropane-1-carboxamide]
21 | 1.8 | CCc1ccncc1-c1cc2cc(NC(=O)c3cnn(C4CCNCC4)c3)ncc2c(N)n1 [Compound 84, 1-Piperidin-4-yl-1H-pyrazole-4-carboxylic acid [8-amino-6-(4-ethylpyridin-3-yl)-[2,7]naphthyridin-3-yl]amide]
22 | 5540 | Cc1ccncc1-c1cc2cc(NC(=O)C(C)(C)C#N)ncc2c(N)n1 [Compound 35, N-(8-amino-6-(4-methylpyridin-3-yl)-2,7-naphthyridin-3-yl)-2-cyano-2-methylpropanamide]
23 | 15 | Cc1ccncc1-c1cc2cc(NC(=O)O[C@@H]3CCNC3=O)ncc2c(N)n1 [Compound 133]
24 | 1.3 | CCc1ccncc1-c1cc2cc(Nc3cnn(C)c3)ncc2c(N)n1 [Compound 74, 3-(4-Ethylpyridin-3-yl)-N6-(1-methyl-1H-pyrazol-4-yl)-[2,7]naphthyridine-1,6-diamine]
25 | 0.173 | Cc1ccncc1-c1cc2cc(NC(=O)[C@H]3C[C@@H]3C3CNC(=O)O3)ncc2c(N)n1 (stereo partly drawn) [Compound 231, trans-N-(8-amino-6-(4-methylpyridin-3-yl)-2,7-naphthyridin-3-yl)-2-((S)-2-oxooxazolidin-5-yl)cyclopropanecarboxamide]
